This is an account of results in article PMC12693135, “Ocular Toxicity and Mechanistic Investigation for Berberine and Its Metabolite Berberrubine on Zebrafish” (Molecules, 2025).

The subject of data set [1] is wild-type AB strain zebrafish ocular cells. The experiment in a line: Fluorescence microscopy for ocular cell apoptosis (acridine orange). To be noted: for fluorescence intensity of apoptotic ocular cells (ratio to eye area): control 0.19. The data set is classed as in vivo, zebrafish (Danio rerio). The procedure: To investigate the underlying mechanism of ocular toxicity, we evaluated the proapoptotic effects of BBR and M1 on wild-type AB strain zebrafish ocular cells. Zebrafish embryos at 6 hpf were water-soluble administration with BBR (25 or 50 μM) or M1 (100 or 200 μM), and the fluorescence intensity of apoptotic ocular cells was measured at 5 dpf using confocal fluorescence microscopy (Figure 4A). […] Specifically, the fluorescence intensity (a marker of apoptotic cell abundance) was increased from 0.19 to 0.28 and 0.32 upon the treatments of 25 μM BBR and 50 μM BBR, respectively.
A total of 30 wild-type AB strain zebrafish at 6 hpf were treated with BBR at 25 or 50 μM, M1 at 100 or 200 μM, or 0.05% DMSO (control), respectively, […], with 30 larvae per treatment and three biological replicates (total 90 larvae per group). The zebrafish larvae were then stained with acridine orange. After staining, 10 larvae were randomly selected from each experimental group and imaged using a motorized-focus continuous-zoom fluorescence microscope AZ100 (Nikon, Shinagawa-ku, Japan) with the magnification of 10–40× and exposure time of 200–500 ms. The fluorescence intensity of ocular apoptotic cells and mitochondria in zebrafish larvae was measured and analyzed using NIS-Elements 6.10 (Nikon Imaging Software, Nikon, Japan).

The subject of data set [2] is wild-type AB strain zebrafish. The experiment in a line: qPCR gene expression in zebrafish larvae. It counts as in vivo, zebrafish (Danio rerio). To be noted: BBR 25 or 50 μM, M1 100 or 200 μM. The method, then: Wild-type AB strain zebrafish (6 hpf) were treated with BBR (25 or 50 μM), M1 (100 or 200 μM), or 0.05% DMSO (control) until 5 dpf, with 30 larvae per treatment and three biological replicates (total 90 larvae per group). A total of 30 larvae were pooled per sample (3 samples per group), collected, and homogenized. Total RNA was isolated using a commercial RNA extraction kit following the manufacturer’s protocol. The concentration and purity of the extracted RNA were determined by measuring the absorbance at 260 nm and 280 nm using a NanoDrop 2000 ultraviolet-visible spectrophotometer (Thermo, Waltham, MA, USA). A total of 1 µg of RNA from each sample was reverse-transcribed into complementary DNA (cDNA) using a PrimeScript RT reagent kit (Takara Bio Inc., Dalian, China). The reverse transcription reaction was performed in a T100 Thermal Cycler (BIO-RAD, Singapore) under the following conditions: 37 °C for 15 min, followed by 85 °C for 5 s.
The qPCR reactions were carried out to quantify the relative expression levels of target genes, including photoreceptor-related genes (rho and opn1sw), mitochondrial dynamics genes (mfn2 and drp1), autophagy markers (lc3b and p62), apoptosis-related genes (baxa, bcl2a, caspase9, caspase3, and caspase7), and inflammation-related genes (il1b and il6), on a CFX Connect quantitative real-time PCR instrument (BIO-RAD, Singapore). The experiment was performed according to the manufacturer’s instruction. β-actin served as the internal reference, and the experiment was repeated in triplicate.
In general terms: Quantitative PCR measures a nucleic acid by following its amplification.

Data set [3] can be described thus: MTT cytotoxicity assay on HCE-T cells. It counts as cell-based, human. The settings on record: human, HCE-T human corneal epithelial cells; HCE-T cells, 24 h incubation. The procedure:
The human corneal epithelial cell line HCE-T (Cellosaurus accession: CVCL_1272, RRID: CVCL_1272, RCB: RCB2280) was purchased from Procell Life Science and Technology Co., Ltd. (Wuhan, China). […] were cultured in high-glucose Dulbecco’s Modified Eagle Medium (DMEM), which was purchased from Procell Life Science and Technology Co., Ltd. (Wuhan, China). The high-glucose DMEM was DMEM basic medium supplemented with 15% fetal bovine serum (Procell), 1% penicillin/streptomycin (Procell), 5 μg/mL insulin, and 10 ng/mL human epidermal growth factor (Procell).
HCE-T cells were seeded in 96-well plates (8 × 10^3 cells/well, 100 μL medium) and cultured overnight at 37 °C, 5% CO2 for adhesion. BBR or its metabolites at various concentrations (BBR and M3 at the concentrations of 31.25, 62.5, 125, 250 and 500 µM, M1 and M4 at the concentrations of 25, 50, 100, 200 and 400 µM) in 0.5% DMSO were added and incubated for 24 h, with 0.5% DMSO in culture medium as the vehicle control. Subsequently, 20 μL MTT (5 mg/mL) was added to each well and the cells were cultured at 37 °C for 4 h. Then, the culture medium was removed, and 150 μL DMSO was added to dissolve formazan crystals and the absorbance at 570 nm was measured on a Synergy H1 multifunctional microplate reader (Biotek, Winooski, VT, USA). The IC50 values of test compounds were calculated by Graphpad Prism 8.5 (GraphPad Software Co., San Diego, CA, USA).
For orientation: Tetrazolium dyes change colour on reduction, which living cells bring about.

Data set [4] has as its system human lens epithelial cells (HLE-B3). Also noted: method as in PMID 17645667. To be noted: 25 μM under UVA exposure; cited from earlier work.
In data set [5] the test system is rabbit corneal epithelium. More on the design: method as in PMID 32074824. The settings on record: topical application of 1.5 mg/mL; cited from earlier work.

The term IC50 denotes the concentration that gives 50% inhibition.

For `COc1ccc2cc3[n+](cc2c1OC)CCc1cc2c(cc1-3)OCO2` [BBR, berberine], the “fluorescence intensity of apoptotic ocular cells (ratio to eye area)” value in data set [1] (25 μM) came to 0.28. For the same molecule, the “fluorescence intensity of apoptotic ocular cells (ratio to eye area)” value in data set [1] (50 μM) was 0.32. For the same molecule, in data set [2], the bcl2a expression entry is “dose-dependently reduced bcl2a expression”; the “expression of baxa, caspase9, caspase3 and caspase7” value was “increasing the expression of baxa, caspase9, caspase3 and caspase7”; the “expression of drp1” value was “increasing that of drp1 in a concentration-dependent manner”; the “expression of lc3b” value was “decreasing the expression of lc3b”. In data set [2], the “expression of mfn2” value is reported as “decreased the expression of mfn2 dose-dependently”; the “expression of rho and opn1sw genes” value was “reduced the expression of these two genes in a dose-dependent manner”; the p62 levels result is on record as “elevation in p62 levels”; the “transcription of il1β and il6” value is “promoted the transcription of proinflammatory cytokine genes il1β and il6”. In data set [3], the concentration for half-maximal inhibition (IC50) at 24 h was 301 µM. Further, the “phototoxic damage to cells” value in data set [4] is on record as “severe damage”. Besides, the corneal epithelial repair result in data set [5] was “delayed corneal epithelial repair”.
Take `COc1ccc2cc3[n+](cc2c1O)CCc1cc2c(cc1-3)OCO2` [M1, berberrubine]: in data set [1] (200 μM compared with 100 μM), the “apoptosis in ocular cells” value is “significant increase in apoptosis”. Further, in data set [2], the bcl2a expression entry is “dose-dependently reduced bcl2a expression”; the “expression of baxa, caspase9, caspase3 and caspase7” value is “increasing the expression of baxa, caspase9, caspase3 and caspase7”; the “expression of drp1” value is reported as “increasing that of drp1 in a concentration-dependent manner”; the “expression of lc3b” value was “decreasing the expression of lc3b”. For the same molecule, in data set [2], the “expression of mfn2” value is “decreased the expression of mfn2 dose-dependently”; the “expression of rho and opn1sw genes” value is reported as “reduced the expression of these two genes in a dose-dependent manner”; the p62 levels result is recorded as “elevation in p62 levels”; the “transcription of il1β and il6” value was “promoted the transcription of proinflammatory cytokine genes il1β and il6”. Besides, the IC50 at 24 h in data set [3] was 232 µM.
